US20070161648A1, “Substituted dihydro-isoindolones useful in treating kinase disorders” (priority 2005, published 2007)

Assays:
[1] = molecular target: T1, VEGF-R2 kinase domain (Rattus norvegicus, UniProt O08775); experiment: VEGF-R2 screening assay (33P-ATP FlashPlate kinase assay); assay type: biochemical; conditions: for IC50: 10 μM ATP; for inhibition at 100 µM: single test concentration 100 μM
T1 construct: polyhistidine (N)
Description: (§1) 70 μL of the kinase reaction mixture was dispensed into the well of a streptavidin coated FlashPlate™ (Cat. # SMP103, NEN, Boston, Mass.).
(§2) Test compound stock in 100% DMSO (1 μL) was added to the wells resulting in a final concentration of 1% DMSO in the reaction with a 100 μL final reaction volume. Each enzyme was diluted in 50 mM Tris-HCl pH=8.0, 0.1% BSA and 30 μL was added to each well to initiate the reaction. The reaction was incubated for one hour at 30° C. At the end of the 1 hr incubation, the reaction was terminated by aspirating the mixture from the plate and washing the wells twice with PBS containing 100 mM EDTA. The biotinylated peptide substrate became immobilized on the Flashplate™ and the incorporation of ^33P-γ-ATP was measured by reading the plate on a scintillation counter. Inhibition of the enzymatic activity was measured by observing a reduced amount of ^33P-γ-ATP incorporated into the immobilized peptide.
The assay used 150 ng of the N-terminal biotinylated peptide biotin-[…]-amide (VEGF-R2) per well.
(§3) A maximum and minimum signal for the assay was determined on each plate. The percent inhibition of a test compound was calculated according to the formula: [formula]

[2] = system: HeLa cervical adenocarcinoma; experiment: Cell proliferation inhibition assay (14C-thymidine incorporation), HeLa; assay type: cell-based; conditions: Homo sapiens
Source text: (§4) The ability of a test compound to inhibit unregulated cell proliferation may be determined by measuring incorporation of ^14C-labelled thymidine into newly synthesized DNA within cell lines derived from carcinomas originating from several tissues. Accordingly, the effect of a test compound on proliferation of cells with a variety of phenotypes may be determined.
(§5) Carcinoma cell lines used include the HeLa cervical adenocarcinoma from the American Type Culture Collection (ATCC Cat. #CCL2), A375 malignant melanoma (ATCC Cat. #CRL-1619) and HCT-116 colon carcinoma (ATCC Cat. #CCL-247).
(§6) The carcinoma cells are trypsinized and counted. The cells (3000-8000 count) are added to each well of a 96-well CytoStar tissue culture treated scintillating microplate (Amersham #RPNQO160) in complete medium (100 μL) and the plate is then incubated in complete medium for 24 hrs at 37° C. in an inert atmosphere containing 5% CO2.
(§7) Test compound (1 μL) in 100% DMSO is added to the plate test-wells with DMSO only added to control-wells. The plate is incubated in complete medium for a second 24 hr period at 37° C. in an atmosphere containing 5% CO2.
(§8) An aliquot of a solution of Methyl ^14C-thymidine (56 mC/mmol) (NEN #NEC568 or Amersham #CFA532) and complete medium (20 uL to provide 0.2 μCi/well) is then added to each well and the plate is incubated for a third 24 hr period at 37° C. in an atmosphere containing 5% CO2.
(§9) The plate contents are then discarded, the plate is washed twice with PBS (200 μL) and then PBS (200 μL) is added to each well. The plate is sealed and the degree of methyl ^14C-thymidine incorporation is quantified on a Packard Top Count.
(§10) For a series of test concentrations, the IC50 was derived by graphing percent inhibition against the log of the concentrations tested for a given compound with results shown in Table 2.

[3] = molecular target: T2, Aurora-A (Mus musculus, UniProt P97477); experiment: Aurora-A screening assay (33P-ATP FlashPlate kinase assay); assay type: biochemical, murine; conditions: for IC50: 10 μM ATP; for inhibition at 10 µM: single test concentration 10 μM; for inhibition at 100 µM: single test concentration 100 μM
T2 construct: followed by the full length protein encoding the murine Aurora-A; polyhistidine (N); made in house; host or cells: Sf9 insect cells
T2 sequence (P97477 1-395): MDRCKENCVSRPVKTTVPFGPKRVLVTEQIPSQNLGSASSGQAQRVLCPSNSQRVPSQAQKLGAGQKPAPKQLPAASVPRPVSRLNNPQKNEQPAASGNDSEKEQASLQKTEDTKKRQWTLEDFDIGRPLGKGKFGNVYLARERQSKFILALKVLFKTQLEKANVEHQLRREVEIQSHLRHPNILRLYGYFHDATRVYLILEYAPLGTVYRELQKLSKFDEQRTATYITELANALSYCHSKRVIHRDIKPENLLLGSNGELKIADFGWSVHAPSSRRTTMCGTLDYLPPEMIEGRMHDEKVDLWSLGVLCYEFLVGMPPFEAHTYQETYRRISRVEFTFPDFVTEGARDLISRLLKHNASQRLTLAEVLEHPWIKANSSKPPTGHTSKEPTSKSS
Description: as §1, §2
Aurora-A is a fusion protein containing a polyhistidine tag at the N terminus followed by the full length protein encoding the murine Aurora-A (Accession number GB BC014711) expressed and purified from sf9 insect cells. The assay used 400 ng of the N-terminal biotinylated peptide biotin-[…]-amide (Aurora-A) per well.
as §3

[4] = system: HCT-116 colon carcinoma; experiment: Cell proliferation inhibition assay (14C-thymidine incorporation), HCT116; assay type: cell-based; conditions: Homo sapiens
Source text: as §4, §5, §6, §7, §8, §9, §10

[5] = system: A375 malignant melanoma; experiment: Cell proliferation inhibition assay (14C-thymidine incorporation), A375; assay type: cell-based; conditions: Homo sapiens, A-375
Source text: as §4, §5, §6, §7, §8, §9, §10

[6] = read-out: Aurora-A percent inhibition
[7] = read-out: VEGF-R2 percent inhibition

T1 sequence (O08775 786-1343): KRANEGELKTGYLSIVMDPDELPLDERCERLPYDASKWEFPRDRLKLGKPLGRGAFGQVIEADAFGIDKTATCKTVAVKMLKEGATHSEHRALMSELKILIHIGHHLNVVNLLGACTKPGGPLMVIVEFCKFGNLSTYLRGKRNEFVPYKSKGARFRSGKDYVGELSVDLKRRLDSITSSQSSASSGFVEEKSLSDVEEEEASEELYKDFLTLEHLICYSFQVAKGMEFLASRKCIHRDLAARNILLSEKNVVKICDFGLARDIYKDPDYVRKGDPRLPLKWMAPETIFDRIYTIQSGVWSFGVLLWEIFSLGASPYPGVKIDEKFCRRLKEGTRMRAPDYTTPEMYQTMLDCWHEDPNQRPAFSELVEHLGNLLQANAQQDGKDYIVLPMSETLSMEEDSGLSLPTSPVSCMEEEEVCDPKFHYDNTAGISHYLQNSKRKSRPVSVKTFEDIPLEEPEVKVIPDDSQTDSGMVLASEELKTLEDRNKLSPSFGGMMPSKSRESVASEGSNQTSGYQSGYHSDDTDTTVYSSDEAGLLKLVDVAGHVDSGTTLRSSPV

## CCN1CCN(CCCOc2ccc3[nH]c(-c4cccc5c4C(=O)NC5)cc3c2)CC1 [Cpd 1, 7-{5-[3-(4-ethyl-piperazin-1-yl)-propoxy]-1H-indol-2-yl}-2,3-dihydro-isoindol-1-one]
[1]
  IC50: 0.014 µM
[2]
  IC50: 5.31 µM
[3]
  IC50: 0.044 µM
[4]
  IC50: 3.85 µM
[5]
  IC50: 3.9 µM

## O=C1NCc2cccc(-c3cc4cc(OCCCN5CCC(CO)CC5)ccc4[nH]3)c21 [Cpd 2, 7-{5-[3-(4-hydroxymethyl-piperidin-1-yl)-propoxy]-1H-indol-2-yl}-2,3-dihydro-isoindol-1-one]
[1]
  IC50: 0.018 µM
[2]
  IC50: 3.35 µM
[3]
  IC50: 0.061 µM
[4]
  IC50: 2.26 µM
[5]
  IC50: 0.763 µM

## COc1ccc2[nH]c(-c3cccc4c3C(=O)NC4)cc2c1 [Cpd 3, 7-(5-methoxy-1H-indol-2-yl)-2,3-dihydro-isoindol-1-one]
[1]
  IC50: 0.111 µM
[2]
  IC50: > 100 µM
[3]
  IC50: 0.07 µM
[4]
  IC50: > 100 µM
[5]
  IC50: > 100 µM

## O=C1NCc2cccc(-c3cc4cc(O)ccc4[nH]3)c21 [Cpd 4, 7-(5-hydroxy-1H-indol-2-yl)-2,3-dihydro-isoindol-1-one]
[1]
  IC50: 0.119 µM
[2]
  IC50: 3.64 µM
[3]
  IC50: 0.09 µM
[4]
  IC50: 6.09 µM
[5]
  IC50: 4.85 µM

## O=C1NCc2cccc(-c3cc4cc(OCCCO)ccc4[nH]3)c21 [Cpd 5, 7-[5-(3-hydroxy-propoxy)-1H-indol-2-yl]-2,3-dihydro-isoindol-1-one]
[1]
  IC50: 0.03 µM
[2]
  IC50: 15 µM
[3]
  IC50: 0.1 µM
[4]
  IC50: 6.47 µM
[5]
  IC50: 4.4 µM

## COc1cc2c(c(-c3cc4cc(OC)ccc4[nH]3)c1)C(=O)NC2 [Cpd 6, 5-methoxy-7-(5-methoxy-1H-indol-2-yl)-2,3-dihydro-isoindol-1-one]
[1]
  IC50: 0.103 µM
[2]
  IC50: 5.08 µM
[3]
  IC50: 0.1 µM
[4]
  IC50: 4.28 µM
[5]
  IC50: 3.02 µM

## O=C1NCc2cccc(-c3cc4ccccc4[nH]3)c21 [Cpd 7, 7-(1H-indol-2-yl)-2,3-dihydro-isoindol-1-one]
[1]
  IC50: 0.144 µM
[2]
  IC50: 3.71 µM
[3]
  IC50: 0.1 µM
[4]
  IC50: 5.04 µM
[5]
  IC50: 5.56 µM

## O=C1NCc2cccc(-c3cc4cc(OCCN5CCOCC5)ccc4[nH]3)c21 [Cpd 8, 7-[5-(2-morpholin-4-yl-ethoxy)-1H-indol-2-yl]-2,3-dihydro-isoindol-1-one]
[1]
  IC50: 0.074 µM
[2]
  IC50: 5.81 µM
[3]
  IC50: 0.135 µM
[4]
  IC50: 5.74 µM
[5]
  IC50: 2.7 µM

## O=C1NCc2cccc(-c3cc4cc(OCCCN5CCCCC5)ccc4[nH]3)c21 [Cpd 9, 7-[5-(3-piperidin-1-yl-propoxy)-1H-indol-2-yl]-2,3-dihydro-isoindol-1-one]
[1]
  IC50: 0.065 µM
[2]
  IC50: 6.06 µM
[3]
  IC50: 0.179 µM
[4]
  IC50: 7.77 µM
[5]
  IC50: 4.03 µM

## O=C1NCc2cccc(-c3cc4cc(OCCN5CCCCC5)ccc4[nH]3)c21 [Cpd 10, 7-[5-(2-piperidin-1-yl-ethoxy)-1H-indol-2-yl]-2,3-dihydro-isoindol-1-one]
[1]
  IC50: 0.056 µM
[2]
  IC50: 4.63 µM
[3]
  IC50: 0.2 µM
[4]
  IC50: 2.34 µM
[5]
  IC50: 0.437 µM

## COc1ccc2[nH]c(-c3cccc4c3C(=O)NC4)nc2c1 [Cpd 11, 7-(5-methoxy-1H-benzoimidazol-2-yl)-2,3-dihydro-isoindol-1-one]
[1]
  IC50: 0.142 µM
[2]
  IC50: > 10 µM
[3]
  IC50: 0.205 µM
[4]
  IC50: > 10 µM
[5]
  IC50: > 10 µM

## O=C1NCc2cccc(-c3ccc[nH]3)c21 [Cpd 12, 7-(1H-pyrrol-2-yl)-2,3-dihydro-isoindol-1-one]
[1]
  IC50: 1.1 µM
[2]
  IC50: 52.6 µM
[3]
  IC50: 0.338 µM
[4]
  IC50: > 100 µM
[5]
  IC50: > 10 µM

## COc1ccc2c(c1)cc(-c1ccc([N+](=O)[O-])c3c1C(=O)NC3)n2C(=O)OC(C)(C)C [Cpd 15, 5-methoxy-2-(7-nitro-3-oxo-2,3-dihydro-1H-isoindol-4-yl)-indole-1-carboxylic acid tert-butyl ester]
[1]
  IC50: 1.52 µM
[3]
  IC50: 0.27 µM

## COc1ccc2[nH]c(-c3ccc([N+](=O)[O-])c4c3C(=O)NC4)cc2c1 [Cpd 16, 7-(5-methoxy-1H-indol-2-yl)-4-nitro-2,3-dihydro-isoindol-1-one]
[1]
  IC50: 0.0229 µM
[2]
  IC50: 9.42 µM
[3]; [6]
  inhibition at 10 µM: 52%
[4]
  IC50: 3.09 µM
[5]
  IC50: 5.23 µM

## COc1ccc2[nH]c(-c3ccc(N)c4c3C(=O)NC4)cc2c1 [Cpd 17, 4-amino-7-(5-methoxy-1H-indol-2-yl)-2,3-dihydro-isoindol-1-one]
[1]
  IC50: 0.0532 µM
[3]
  IC50: 0.432 µM

## COc1ccc2[nH]c(-c3ccc(NC(C)=O)c4c3C(=O)NC4)cc2c1 [Cpd 18, N-[7-(5-methoxy-1H-indol-2-yl)-1-oxo-2,3-dihydro-1H-isoindol-4-yl]-acetamide]
[1]
  IC50: > 100 µM
[3]; [6]
  inhibition at 100 µM: 64%

## O=C1NCc2cccc(-c3cc4cc(OCc5ccccc5)ccc4[nH]3)c21 [Cpd 19, 7-(5-benzyloxy-1H-indol-2-yl)-2,3-dihydro-isoindol-1-one]
[1]
  IC50: 11.3 µM
[3]
  IC50: 21.2 µM

## O=C1NCc2cccc(-c3c[nH]c4ccccc34)c21 [Cpd 20, 7-(1H-Indol-3-yl)-2,3-dihydro-isoindol-1-one]
[1]; [7]
  inhibition at 100 µM: 50%
[3]; [6]
  inhibition at 100 µM: 60%

## COc1ccc2c(c1)cc(-c1cccc3c1C(=O)NC3=O)n2C(=O)OC(C)(C)C [Cpd 21, 2-(1,3-dioxo-2,3-dihydro-1H-isoindol-4-yl)-5-methoxy-indole-1-carboxylic acid tert-butyl ester]
[1]
  IC50: 1.52 µM
[2]
  IC50: 43 µM
[3]
  IC50: 0.27 µM
[4]
  IC50: > 100 µM
[5]
  IC50: > 100 µM

## COc1ccc2[nH]c(-c3cccc4c3C(=O)NC4=O)cc2c1 [Cpd 22, 4-(5-methoxy-1H-indol-2-yl)-isoindole-1,3-dione]
[1]; single test concentration 0.1 μM, read-out: VEGF-R2 percent inhibition
  inhibition at 0.1 µM: 35%
[3]; single test concentration 0.1 μM, read-out: Aurora-A percent inhibition
  inhibition at 0.1 µM: 30%

## CC(C)(C)OC(=O)n1cccc1-c1cccc2c1C(=O)NC2 [Cpd 23, 2-(3-oxo-2,3-dihydro-1H-isoindol-4-yl)-pyrrole-1-carboxylic acid tert-butyl ester]
[1]; [7]
  inhibition at 100 µM: 46%
[3]; [6]
  inhibition at 100 µM: 25%

## CN1Cc2cccc(-c3ccc[nH]3)c2C1=O [Cpd 25, 2-methyl-7-(1H-pyrrol-2-yl)-2,3-dihydro-isoindol-1-one]
[1]; [7]
  inhibition at 100 µM: 37%
[3]
  IC50: > 100 µM

## CC(C)(C)OC(=O)n1c(-c2cccc3c2C(=O)NC3)cc2ccccc21 [Cpd 26, 2-(3-oxo-2,3-dihydro-1H-isoindol-4-yl)-indole-1-carboxylic acid tert-butyl ester]
[1]; [7]
  inhibition at 100 µM: 34%
[3]; [6]
  inhibition at 100 µM: 61%

## COc1ccc2c(c1)cc(-c1cccc3c1C(=O)NC3)n2C(=O)OC(C)(C)C [Cpd 27, 5-methoxy-2-(3-oxo-2,3-dihydro-1H-isoindol-4-yl)-indole-1-carboxylic acid tert-butyl ester]
[1]; [7]
  inhibition at 100 µM: 57%
[2]
  IC50: 55.9 µM
[3]; [6]
  inhibition at 10 µM: 48%
[4]
  IC50: > 10 µM
[5]
  IC50: > 10 µM
